# Experiments:
# Test in all cases: relative viability (nuclei count vs DMSO), 5 days (fraction); higher = more cells survive
# [1] = compound: CC[C@H](CO)Nc1nc(NCc2ccccc2)c2ncn(C(C)C)c2n1 [Seliciclib] + CC1(C)CCC(c2ccc(Cl)cc2)=C(CN2CCN(c3ccc(C(=O)NS(=O)(=O)c4ccc(N[C@H](CCN5CCOCC5)CSc5ccccc5)c(S(=O)(=O)C(F)(F)F)c4)cc3)CC2)C1 [Navitoclax] (partner 0.5 µM)
# In short: (§1)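 For relative viability, nuclei counts in treated wells were divided by those in vehicle wells. Lung cancer cell lines had been pin-tool dosed in 1536-well plates the day after seeding and cultured for 5 days, then fixed and stained in one step (final 0.05% Triton X-100, 1% formaldehyde, 1 ug/ml Hoechst) and imaged at 4×. Doses were one drug alone or a fixed anchor-drug dose plus five library-drug doses (not always all listed) in √10 steps, and values are duplicate-plate medians.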
# [2] = compound: CC[C@H](CO)Nc1nc(NCc2ccccc2)c2ncn(C(C)C)c2n1 [Seliciclib] + Nc1nc2[nH]cc(CCc3ccc(C(=O)N[C@@H](CCC(=O)O)C(=O)O)cc3)c2c(=O)[nH]1 [Pemetrexed] (partner 0.2 µM)
# In short: as §1
# [3] = compound: CC[C@H](CO)Nc1nc(NCc2ccccc2)c2ncn(C(C)C)c2n1 [Seliciclib] + C[C@]1(O)C[C@@H](c2nc(-c3ccc4ccc(-c5ccccc5)nc4c3)c3c(N)nccn32)C1 [Linsitinib] (partner 1 µM)
# In short: as §1
# [4] = compound: CC[C@H](CO)Nc1nc(NCc2ccccc2)c2ncn(C(C)C)c2n1 [Seliciclib] + O=C(CCCCCCC(=O)Nc1ccccc1)NO [Vorinostat] (partner 1 µM)
# In short: as §1
Cell Line,relative viability ([1]; first compound 0.08 µM),relative viability ([1]; first compound 0.253 µM),relative viability ([1]; first compound 0.8 µM),relative viability ([1]; first compound 2.53 µM),relative viability ([1]; first compound 8 µM),relative viability ([2]; first compound 0.08 µM),relative viability ([2]; first compound 0.253 µM),relative viability ([2]; first compound 0.8 µM),relative viability ([2]; first compound 2.53 µM),relative viability ([2]; first compound 8 µM),relative viability ([3]; first compound 0.08 µM),relative viability ([3]; first compound 0.253 µM),relative viability ([3]; first compound 0.8 µM),relative viability ([3]; first compound 2.53 µM),relative viability ([3]; first compound 8 µM),relative viability ([4]; first compound 0.08 µM),relative viability ([4]; first compound 0.253 µM),relative viability ([4]; first compound 0.8 µM),relative viability ([4]; first compound 2.53 µM),relative viability ([4]; first compound 8 µM)
201T,1.18,1.17,1.2,1.2,1.13,0.379,0.357,0.382,0.27,0.323,1.04,1.07,0.994,1.05,0.982,0.967,1.07,0.904,0.637,0.906
A-427,1.01,0.95,0.809,0.946,0.95,1.01,1.01,1.03,0.963,0.917,1.08,1.11,1.2,1.15,1.13,0.856,0.815,0.877,0.823,0.824
ABC-1,,,,,,,,,,,0.919,0.806,0.918,0.957,1.04,0.996,0.953,1.29,,0.774
BEN,0.0594,,0.0808,0.213,0.0793,0.805,0.676,0.67,0.611,0.63,1.16,,0.852,1.07,0.786,0.543,0.533,0.55,0.502,0.489
CAL-12T,1.25,,1.04,1.03,1.06,1.16,0.949,1.2,1.06,1.01,0.87,0.977,0.744,0.742,0.673,0.583,0.407,0.788,0.7,0.625
COR-L23,0.906,1.1,0.867,1.06,0.733,0.209,0.192,0.195,0.198,0.212,0.873,0.84,0.922,1.11,0.684,0.402,0.43,0.403,0.458,0.359
COR-L 105,0.86,0.624,0.597,0.763,0.684,0.98,1.09,1.21,1.09,1.01,1.04,0.748,0.943,0.91,0.926,0.83,0.901,0.859,0.802,0.575
Calu-6,0.796,0.933,0.939,0.895,0.825,,,,,,1.05,0.996,0.95,1.01,0.899,,,,,
ChaGo-K-1,1.03,0.567,0.949,0.755,0.431,0.25,0.253,0.264,0.251,0.251,,,,,,0.758,0.628,0.743,0.654,0.433
EKVX,0.951,1.1,0.865,0.777,0.702,0.368,0.37,0.354,0.379,0.472,0.925,1.1,0.94,1.14,0.711,0.627,0.857,0.553,0.633,0.593
EMC-BAC-2,1.13,1.11,1.1,1.27,1.09,0.417,0.476,0.547,0.468,0.508,0.835,0.805,0.775,0.894,0.754,0.454,0.414,0.547,0.259,0.307
EPLC-272H,1.24,0.987,1.12,1.28,1.12,0.326,0.357,0.274,0.329,0.229,1.32,1.09,1.04,1.35,0.927,0.43,0.506,0.476,0.311,0.405
H3255,0.656,0.558,0.512,0.436,0.46,0.555,0.624,0.639,0.471,0.534,0.872,0.926,1.02,1.16,0.891,0.854,0.825,0.855,0.691,0.755
HARA,1.13,1.23,1.11,1.16,1.07,0.238,0.28,0.244,0.227,0.21,0.978,1.02,0.943,1.1,1.01,0.555,0.518,0.588,0.381,0.487
HCC-15,0.719,0.77,0.677,0.718,0.491,0.221,0.223,0.219,0.218,0.226,0.931,0.986,0.861,0.941,0.667,0.893,0.855,0.838,0.747,0.761
HCC-44,1.05,0.934,0.957,1.07,1.03,0.631,0.676,0.684,0.617,0.645,0.64,0.626,0.633,0.697,0.649,1.14,1.19,1.06,1.08,1.07
HCC-78,0.73,0.969,0.738,0.703,0.557,0.852,0.89,0.914,0.958,0.88,0.478,0.558,0.49,0.596,0.404,0.393,0.518,0.389,0.396,0.32
HCC-366,1.01,0.699,1.03,1.17,0.947,0.153,0.327,0.212,0.295,0.241,0.538,0.448,0.557,0.836,0.36,0.317,0.467,0.377,0.212,0.164
HCC-827,1,1.03,1.01,0.976,0.953,0.251,0.241,0.258,0.297,0.258,0.927,1,0.892,0.919,0.845,0.845,0.951,0.912,0.77,0.756

Cell Line,relative viability ([1]; first compound 0.08 µM),relative viability ([1]; first compound 0.253 µM),relative viability ([1]; first compound 0.8 µM),relative viability ([1]; first compound 2.53 µM),relative viability ([1]; first compound 8 µM),relative viability ([2]; first compound 0.08 µM),relative viability ([2]; first compound 0.253 µM),relative viability ([2]; first compound 0.8 µM),relative viability ([2]; first compound 2.53 µM),relative viability ([2]; first compound 8 µM),relative viability ([3]; first compound 0.08 µM),relative viability ([3]; first compound 0.253 µM),relative viability ([3]; first compound 0.8 µM),relative viability ([3]; first compound 2.53 µM),relative viability ([3]; first compound 8 µM),relative viability ([4]; first compound 0.08 µM),relative viability ([4]; first compound 0.253 µM),relative viability ([4]; first compound 0.8 µM),relative viability ([4]; first compound 2.53 µM),relative viability ([4]; first compound 8 µM)
HOP-62,1.01,1.1,0.909,1.12,0.926,0.285,0.326,0.383,0.339,0.351,1.04,0.935,0.891,0.834,0.879,0.65,0.623,0.732,0.479,0.437
IA-LM,0.738,1.15,0.732,0.772,0.72,,,,,,0.644,0.793,0.602,0.709,0.611,0.895,0.984,0.848,0.935,0.867
LC-2-ad,0.419,0.505,0.379,0.494,0.271,0.264,0.25,0.285,0.279,0.248,0.884,0.94,0.756,0.827,0.607,0.7,0.68,0.671,0.445,0.528
LCLC-97TM1,0.324,0.462,0.414,,0.223,0.206,0.148,0.192,0.135,0.135,0.162,0.181,0.205,,0.18,0.803,0.706,0.82,0.106,0.222
LCLC-103H,,,,,,0.377,0.439,0.514,0.456,0.494,1.17,0.973,1.02,1.02,0.849,0.753,0.764,0.733,0.448,0.68
LK-2,0.797,0.648,0.823,0.643,0.536,0.25,0.274,0.266,0.166,0.195,0.74,0.462,0.523,0.676,0.274,0.33,0.253,0.335,0.242,0.204
LOU-NH91,0.591,0.61,0.591,0.695,0.482,,0.394,0.367,0.44,0.393,0.878,0.889,0.881,1.01,0.693,,0.863,0.803,0.778,0.613
LU99A,0.9,0.671,0.69,0.759,0.711,0.172,0.211,0.204,0.197,0.188,0.565,0.466,0.474,0.497,0.494,0.538,0.383,0.458,0.383,0.455
NCI-H358,,,,,,0.17,0.178,0.167,0.159,0.169,0.613,0.634,0.617,0.609,0.445,0.726,0.942,0.513,0.711,0.267
NCI-H522,,,,,,1.11,0.917,1.18,1.01,0.914,,,,,,0.854,0.84,1.01,0.881,0.744
NCI-H650,,,,,,1.06,0.905,1.07,0.73,0.825,0.833,0.925,1.17,,0.897,0.403,0.36,0.638,0.3,0.341
NCI-H661,,,,,,0.839,1.03,0.921,0.82,0.806,0.545,0.542,0.543,0.518,0.451,0.721,0.918,0.748,0.703,0.565
NCI-H727,0.509,0.494,0.407,0.43,0.309,,,,,,0.306,0.245,0.222,0.226,0.251,1.19,1.25,1.04,0.744,1.07
NCI-H1563,,,,,,0.8,0.716,0.85,0.698,0.668,1.15,0.925,1.11,1.21,1.12,,,,,
NCI-H1650,1.12,1.01,1.07,1.21,1.08,0.429,0.346,0.36,0.427,0.399,,,,,,0.474,0.511,0.558,0.526,0.326
NCI-H1703,0.957,0.862,1.05,1.21,0.87,,,,,,0.675,0.869,0.767,0.989,0.712,,,,,
NCI-H1792,0.616,0.583,0.663,0.443,0.609,0.795,0.694,0.82,,0.868,0.459,0.568,0.521,0.678,0.477,,,,,
NCI-H2170,0.671,0.338,0.596,0.667,0.523,0.269,,0.262,0.268,0.26,,,,,,0.742,,0.774,0.687,0.663
SW 900,,,,,,0.515,0.501,0.484,0.451,0.406,,,,,,0.53,0.701,0.484,0.467,0.35
